Literature values as cited in patent US11583515B2, “Composition and method for rapidly inducing an endogenous ketosis” (priority 2015, dated 2023).

Experiments:
[1] = racemic mixture of R and S enantiomers, taken orally
[2] = tested on: insulin signaling cascade; conditions: 600, 1200, and 1800 mg daily for four weeks; individuals with impaired insulin signaling cascades
[3] = in vivo
[4] = tested on: muscle cells; conditions: with and without the presence of insulin or exercise
[5] = tested on: Dawley rats

O=C(O)CCCCC1CCSS1 (racemic) [Alpha Lipoic acid, 1,2-dithiolane-3-pentanoic acid]
bioavailability after absorption [1]: ~30% | complete plasma clearance [1]: approximately three hours | half-life [1]: thirty minutes to one and one half hours | effect on mother or child (2014 study, treating peripheral neuropathy during pregnancy): no harmful effect | safety of supplementation (animal or human studies, various ranges of intake, large doses or extended use): safe with no widespread serious or life-threatening reactions reported | improvement of effectiveness of the signaling cascade on glucose uptake and utilization [2]: 25%

[Cr] [Chromium]
absorption, share of an ingested dose [3]: 1-2% | complete plasma clearance half-life [3]: 8 to 12 h | rate of cellular glucose uptake [4]: several times normal | doses used without any reported adverse effects (chromium containing supplements): up to 1000 mcg

beta-hydroxybutyrate salts
effect on triglycerides or total cholesterol ([5]; after four weeks of repeated daily ingestion): no effect | effect on blood glucose numbers ([5]; orally supplemented, 28 days): improved | effect to promote weight loss ([5]; orally supplemented, 28 days): no effect | blood level of beta-hydroxybutyrate, acetoacetate, and acetone ([5]; supplementation): increases
